Results taken from patent US6387910B1, “Drug of improving optic nerve head circulation disorder” (Akzo Nobel N.V., priority 1998, dated 2002).

Tests used:
[1] = Measurement of plasma concentration of drug in rabbit (gas chromatography); type: in vivo; conditions: Lomerizine hydrochloride 0.03 mg/kg, i.v.
Procedure: Under the same conditions as in the above Example 1, the plasma concentration of Lomerizine in the groups administered with Lomerizine hydrochloride (0.03 mg/kg, i.v.) 5, 15, 30 and 60 minutes after the administration of the drug as follows.
Male New Zealand White rabbits (weighing 2.5-3.5 kg, 3 animals per group) were placed in an OSHIDA-type solid box. A solution of Lomerizine hydrochloride (in an amount so as to be 0.03 mg/kg) in a 20% dimethylacetamide containing 2% tartaric acid was prepared and was administered to the right post auricular vein of the animals. Thereafter, blood sampling was done from left post auricular vein 5, 15, 30 and 60 minutes after the administration of test drug. The collected blood sample was centrifuged (4° C., 3000 rpm×10 minutes) to obtain a plasma sample, and then the amount of Lomerizine in the plasma was measured by gas chromatography.
The gas chromatography was carried out under the following conditions:
GC-14B type gas chromatograph (manufactured by Shimadzu Corporation)
FTD Detector (Shimadzu FTD-8, manufactured by Shimadzu Corporation)
Conditions for Measurement:
Column: Shimadzu CBP1-M25-025 (25m×0.2mm, thickness of membrane: 0.25 μm)
Injection port temperature: 310° C.
Column temperature: 285° C.
Detector temperature: 310° C.
Carrier gas: Helium (2.30 kg/m^2)
Make up gas: Helium (flow rate: 40 ml/minute)
H2 flow rate: 3.8 ml/minute
Air flow rate: 160 ml/minute

[2] = tested on: side effects (objective and subjective symptoms); assay: Side effect-manifestation in aged and younger persons; type: in vivo; conditions: human
[3] = tested on: blood flow in the optic nerve head; assay: Blood flow in the optic nerve head by laser speckle technique (rate of change of NB value); type: in vivo; conditions: rabbit, i.v.
Procedure: The optic nerve head circulation improving activity was measured by using as an index the rate of change of NB value as mentioned hereinafter.
1) Measurement of Blood Flow in the Optic Nerve Head by Laser Speckle Technique
(§1) Male New Zealand White rabbits (weighing 2.3-3.1 kg) were housed in an OSHIDA-type solid box and the left auricula was locally anesthetized with Xylocaine Spray (trademark, manufactured by Fujisawa Pharmaceutical) and Xylocaine Jelly (trademark, manufactured by Fujisawa Pharmaceutical), and a catheter (Polyethylene Tube SP28, manufactured by Natsume) were inserted into the post auricular artery for measuring the blood pressure and the heart rate, and the blood pressure and the heart rate were continuously recorded with a recorder (WT-645G, manufactured by Nihon-Koden). Under the local anesthesia, a catheter for administering the test drug (Polyethylene Tube SP31, manufactured by Natsume) was likewise inserted into the right post auricular vein of the animal.
The blood flow of the optic nerve head was measured by selecting a portion having no surface blood vessel at the right optic nerve head [0.42×0.42 mm (field angle 30°) with an eyegrounds circulation analyzer (Laser speckle circulation analyzer-II: LSCA-II), measuring the mean value of the quantitative index of blurring in whole field (100×100) [NB value (normalized blur value)], and calculating the rate of change (%) of the NB value by the following equation: [formula]
By the way, the test drug was prepared by adding a 20% dimethylacetamide solution containing 2% tartaric acid to a drug to be tested so as to adjust the ad ministration volume thereof to 0.1 ml/kg and dissolving the mixture by adding thereto a hot water.
The change of the value between the data after administration of drug or vehicle and the data before the administration of drug or vehicle was determined, and for each item, the mean values and standard deviation in six animals in each test were determined, and the results are shown in the accompanying FIG. 1 to FIG. 8. […]

[4] = tested on: intraocular pressure; assay: Measurement of intraocular pressure in rabbits (pneumatonometer); type: in vivo; conditions: rabbit; 0.003, 0.01 and 0.03 mg/kg, i.v.
Procedure: 2) Measurement of Intraocular Pressure The intraocular pressure was measured on the left eye at each time when the above NB values were measured after the administration of drug or vehicle (excepting 5 minutes after administration, the intraocular pressure was not measured) after dropping a 0.4% solution of Benoxil (trademark, manufactured by Santen Pharmaceutical) by using a calibrated pneumatonometer (Alcon Application Pneumatonograph, manufactured by Nippon Alcon). The change of the value between the data after administration of drug or vehicle and the data before the administration of drug or vehicle was determined, and for each item, the mean values and standard deviation in six animals in each test were determined, and the results are shown in the accompanying FIG. 1 to FIG. 8. The significant test of the test drug was done by t-test at each time of measurement compared to the data in the control group administered with vehicle. The significant standards are indicated separately in the group of less than 5% and the group of less than 1%.

[5] = tested on: blood pressure and heart rate; assay: Mean blood pressure and heart rate in rabbits (post auricular artery catheter); type: in vivo; conditions: rabbit
Text: as §1
The change of the value between the data after administration of drug or vehicle and the data before the administration of drug or vehicle was determined, and for each item, the mean values and standard deviation in six animals in each test were determined, and the results are shown in the accompanying FIG. 1 to FIG. 8. The significant test of the test drug was done by t-test at each time of measurement compared to the data in the control group administered with vehicle. The significant standards are indicated separately in the group of less than 5% and the group of less than 1%.

[6] = tested on: blood flow in the optic nerve head; conditions: literature: Nichi-Gan Kaishi Vol. 100, No. 12, p. 923, 1996; cited from earlier work
[7] = 0.03 mg/kg, i.v., 15 minutes after the administration

Compound | Concentration of Lomerizine in Plasma, Mean ± Standard deviation ([1]; 5 minutes after administration) [ng/mL] | Concentration of Lomerizine in Plasma, Mean ± Standard deviation ([1]; 15 minutes after administration) [ng/mL] | Concentration of Lomerizine in Plasma, Mean ± Standard deviation ([1]; 30 minutes after administration) [ng/mL] | side effect-manifestation in aged persons (65-85 years old) compared with younger persons (15-64 years old) [2] | increasing activity of blood flow in the optic nerve head (rate of change of NB value) vs vehicle ([3]; 0.03 mg/kg, 30 minutes after the administration) | increasing activity of blood flow in the optic nerve head (rate of change of NB value) vs vehicle ([3]; 0.003, 0.01 and 0.03 mg/kg, significant 5 minutes after the administration) | increasing activity of blood flow in the optic nerve head (rate of change of NB value) vs vehicle ([3]; 0.003 and 0.03 mg/kg, 15 minutes after the administration) | action on the intraocular pressure [4] | heart rate vs vehicle [5, 7] | hypotensive activity (mean blood pressure) vs vehicle [5, 7] | hypotensive activity (mean blood pressure) vs vehicle ([5]; 0.01 and 0.03 mg/kg, i.v., 5 minutes after the administration) | heart rate vs vehicle ([5]; 0.01 and 0.03 mg/kg, i.v., 30 minutes after the administration) | heart rate vs vehicle ([5]; all groups (0.003, 0.01 and 0.03 mg/kg, i.v.), 5 minutes after the administration) | action on the optic nerve head (blood flow) [6]
Lomerizine | 19.8 ± 6.5 | 8.1 ± 2.4 | 4.9 ± 2.4 | not so different |  |  |  |  |  |  |  |  |  | 
COC(=O)C1=C(C#N)NC(C)=C(C(=O)OC(C)C)C1c1cccc([N+](=O)[O-])c1 (centres unmarked) [Nilvadipine] |  |  |  |  | significant increasing activity | higher increasing activity | significant increasing activity | no clear action | significant increase | significant hypotensive activity | significant hypotensive activity | significant increase | significant increase | an activity of increasing blood flow
